Test results from US8354269B2 (priority 2008, dated 2013).
Where two headings read alike, the source gives them in different places.

Columns and labels:
[1] = test system: Clostridium autoethanogenum DSM10061
Method: High Performance Liquid Chromatography (HPLC) was used to characterize the level of substrates and products such as for acetate, ethanol, fructose, xylose and pyruvate. HPLC System Agilent 1100 Series. Mobile Phase: 0.0025N Sulphuric Acid. Flow and pressure: 0.800 mL/min. Column: Alltech IOA; Catalog #9648, 150×6.5 mm, particle size 5 μm. Temperature of column: 60° C. Detector: Refractive Index. Temperature of detector: 45° C.
Method for sample preparation: 400 μL of sample+50 μL of 0.15M ZnSO4+50 μL of 0.15M Ba(OH)2 into an Eppendorf tube. Centrifuge 10 min at 12,000 rpm, 4° C. Transfer 200 μL supernatant into an HPLC vial and inject into the HPLC instrument 5 μL.
The serum bottles were charged with CO containing gas (2% H2; 30% N2; 47% CO; 21% CO2) to an overpressure of 30 psi. The gas was purged and refreshed at time=54 h. Growth was monitored by measuring the optical density at 600 nm (OD600nm) and metabolites were detected by HPLC.

[2] = test system: Clostridium carboxidivorans DSM15243;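 further: growth tracked as optical density at 600 nm, while ethanol and acetate were quantified in culture samples by HPLC with a refractive index detector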
[3] = test system: Clostridium autoethanogenum culture 19630; conditions: 54 hours
Method: To determine the cell density in these experiments, the absorbance of the samples was measured at 600 nm (spectrophotometer) and the dry mass determined by extrapolation.
Each well was inoculated with 50 μL of an actively growing Clostridium autoethanogenum culture 19630 from a continuous bioreactor. The wells were then mixed thoroughly and 200 ul from each well was added to a 96 well tissue culture plate. The plate was then sealed with a gas permeable sealing film and placed into an anaerobic pressure vessel. This vessel was pressurized to 30 psi with 100% CO gas and placed on an orbital shaker (150 rpm) in an incubated chamber at 37° C. Samples were analyzed at 54 hours after incubation.

Structure (SMILES): [Cl][Ni][Cl] [Nickel, nickel chloride]
- Ethanol ([1]; Nickel 200 μM, 0 h): 0.22 ± 0.02 g/L
- OD600 nm ([1]; Nickel 200 μM, 0 h): 0.009 ± 0.001
- Ethanol ([1]; Nickel 200 μM, 30 h): 0.22 ± 0.03 g/L
- OD600 nm ([1]; Nickel 200 μM, 30 h): 0.038 ± 0.010
- Acetate ([1]; Nickel 200 μM, 54 h): 0.12 ± 0.02 g/L
- Ethanol ([1]; Nickel 200 μM, 54 h): 0.23 ± 0.03 g/L
- OD600 nm ([1]; Nickel 200 μM, 54 h): 0.052 ± 0.022
- Acetate ([1]; Nickel 200 μM, 102 h): 0.83 ± 0.53 g/L
- Ethanol ([1]; Nickel 200 μM, 102 h): 0.23 ± 0.01 g/L
- OD600 nm ([1]; Nickel 200 μM, 102 h): 0.223 ± 0.141
- Acetate ([1]; Nickel 200 μM, 127 h): 1.48 ± 0.54 g/L
- Ethanol ([1]; Nickel 200 μM, 127 h): 0.30 ± 0.19 g/L
- OD600 nm ([1]; Nickel 200 μM, 127 h): 0.333 ± 0.131
- Ethanol ([1]; Nickel 400 μM, 0 h): 0.22 ± 0.02 g/L
- OD600 nm ([1]; Nickel 400 μM, 0 h): 0.010 ± 0.001
- Ethanol ([1]; Nickel 400 μM, 30 h): 0.22 ± 0.02 g/L
- OD600 nm ([1]; Nickel 400 μM, 30 h): 0.065 ± 0.002
- Acetate ([1]; Nickel 400 μM, 54 h): 0.18 ± 0.10 g/L
- Ethanol ([1]; Nickel 400 μM, 54 h): 0.21 ± 0.02 g/L
- OD600 nm ([1]; Nickel 400 μM, 54 h): 0.087 ± 0.011
- Acetate ([1]; Nickel 400 μM, 102 h): 1.05 ± 0.85 g/L
- Ethanol ([1]; Nickel 400 μM, 102 h): 0.68 ± 0.41 g/L
- OD600 nm ([1]; Nickel 400 μM, 102 h): 0.337 ± 0.129
- Acetate ([1]; Nickel 400 μM, 127 h): 1.44 ± 0.83 g/L
- Ethanol ([1]; Nickel 400 μM, 127 h): 0.68 ± 0.21 g/L
- OD600 nm ([1]; Nickel 400 μM, 127 h): 0.452 ± 0.200
- Ethanol ([1]; Nickel 700 μM, 0 h): 0.23 ± 0.03 g/L
- OD600 nm ([1]; Nickel 700 μM, 0 h): 0.011 ± 0.001
- Ethanol ([1]; Nickel 700 μM, 30 h): 0.24 ± 0.02 g/L
- OD600 nm ([1]; Nickel 700 μM, 30 h): 0.238 ± 0.023
- Acetate ([1]; Nickel 700 μM, 54 h): 0.25 ± 0.01 g/L
- Ethanol ([1]; Nickel 700 μM, 54 h): 0.25 ± 0.03 g/L
- OD600 nm ([1]; Nickel 700 μM, 54 h): 0.292 ± 0.013
- Acetate ([1]; Nickel 700 μM, 102 h): 0.94 ± 0.14 g/L
- Ethanol ([1]; Nickel 700 μM, 102 h): 0.73 ± 0.05 g/L
- OD600 nm ([1]; Nickel 700 μM, 102 h): 0.714 ± 0.060
- Acetate ([1]; Nickel 700 μM, 127 h): 0.95 ± 0.16 g/L
- Ethanol ([1]; Nickel 700 μM, 127 h): 0.72 ± 0.03 g/L
- OD600 nm ([1]; Nickel 700 μM, 127 h): 0.620 ± 0.021
- Ethanol ([1]; Nickel 1000 μM, 0 h): 0.29 ± 0.04 g/L
- OD600 nm ([1]; Nickel 1000 μM, 0 h): 0.010 ± 0.001
- Ethanol ([1]; Nickel 1000 μM, 30 h): 0.28 ± 0.02 g/L
- OD600 nm ([1]; Nickel 1000 μM, 30 h): 0.268 ± 0.080
- Acetate ([1]; Nickel 1000 μM, 54 h): 0.38 ± 0.01 g/L
- Ethanol ([1]; Nickel 1000 μM, 54 h): 0.26 ± 0.03 g/L
- OD600 nm ([1]; Nickel 1000 μM, 54 h): 0.389 ± 0.071
- Acetate ([1]; Nickel 1000 μM, 102 h): 1.57 ± 0.21 g/L
- Ethanol ([1]; Nickel 1000 μM, 102 h): 1.02 ± 0.09 g/L
- OD600 nm ([1]; Nickel 1000 μM, 102 h): 0.720 ± 0.105
- Acetate ([1]; Nickel 1000 μM, 127 h): 1.78 ± 0.11 g/L
- Ethanol ([1]; Nickel 1000 μM, 127 h): 0.99 ± 0.11 g/L
- OD600 nm ([1]; Nickel 1000 μM, 127 h): 0.674 ± 0.098
- Ethanol ([2]; Nickel 200 μM, 0 h): 0.18 ± 0.01 g/L
- OD600 nm ([2]; Nickel 200 μM, 0 h): 0.010 ± 0.001
- Acetate ([2]; Nickel 200 μM, 30 h): 0.37 ± 0.13 g/L
- Ethanol ([2]; Nickel 200 μM, 30 h): 0.18 ± 0.01 g/L
- OD600 nm ([2]; Nickel 200 μM, 30 h): 0.185 ± 0.052
- Acetate ([2]; Nickel 200 μM, 54 h): 0.38 ± 0.02 g/L
- Ethanol ([2]; Nickel 200 μM, 54 h): 0.33 ± 0.02 g/L
- OD600 nm ([2]; Nickel 200 μM, 54 h): 0.239 ± 0.028
- Acetate ([2]; Nickel 200 μM, 102 h): 0.43 ± 0.09 g/L
- Ethanol ([2]; Nickel 200 μM, 102 h): 0.33 ± 0.19 g/L
- OD600 nm ([2]; Nickel 200 μM, 102 h): 0.274 ± 0.025
- Acetate ([2]; Nickel 200 μM, 127 h): 0.61 ± 0.02 g/L
- Ethanol ([2]; Nickel 200 μM, 127 h): 6.69 ± 0.08 g/L
- OD600 nm ([2]; Nickel 200 μM, 127 h): 0.285 ± 0.046
- Ethanol ([2]; Nickel 400 μM, 0 h): 0.18 ± 0.06 g/L
- OD600 nm ([2]; Nickel 400 μM, 0 h): 0.011 ± 0.002
- Acetate ([2]; Nickel 400 μM, 30 h): 0.35 ± 0.02 g/L
- Ethanol ([2]; Nickel 400 μM, 30 h): 0.33 ± 0.11 g/L
- OD600 nm ([2]; Nickel 400 μM, 30 h): 0.271 ± 0.001
- Acetate ([2]; Nickel 400 μM, 54 h): 0.41 ± 0.02 g/L
- Ethanol ([2]; Nickel 400 μM, 54 h): 0.75 ± 0.01 g/L
- OD600 nm ([2]; Nickel 400 μM, 54 h): 0.310 ± 0.037
- Acetate ([2]; Nickel 400 μM, 102 h): 0.37 ± 0.19 g/L
- Ethanol ([2]; Nickel 400 μM, 102 h): 0.86 ± 0.03 g/L
- OD600 nm ([2]; Nickel 400 μM, 102 h): 0.304 ± 0.035
- Acetate ([2]; Nickel 400 μM, 127 h): 0.47 ± 0.03 g/L
- Ethanol ([2]; Nickel 400 μM, 127 h): 0.89 ± 0.08 g/L
- OD600 nm ([2]; Nickel 400 μM, 127 h): 0.291 ± 0.026
- Ethanol ([2]; Nickel 700 μM, 0 h): 0.20 ± 0.01 g/L
- OD600 nm ([2]; Nickel 700 μM, 0 h): 0.010 ± 0.001
- Acetate ([2]; Nickel 700 μM, 30 h): 0.34 ± 0.01 g/L
- Ethanol ([2]; Nickel 700 μM, 30 h): 0.27 ± 0.01 g/L
- OD600 nm ([2]; Nickel 700 μM, 30 h): 0.402 ± 0.014
- Acetate ([2]; Nickel 700 μM, 54 h): 0.40 ± 0.05 g/L
- Ethanol ([2]; Nickel 700 μM, 54 h): 0.84 ± 0.03 g/L
- OD600 nm ([2]; Nickel 700 μM, 54 h): 0.689 ± 0.097
- Acetate ([2]; Nickel 700 μM, 102 h): 0.65 ± 0.06 g/L
- Ethanol ([2]; Nickel 700 μM, 102 h): 0.86 ± 0.25 g/L
- OD600 nm ([2]; Nickel 700 μM, 102 h): 0.519 ± 0.078
- Acetate ([2]; Nickel 700 μM, 127 h): 0.63 ± 0.32 g/L
- Ethanol ([2]; Nickel 700 μM, 127 h): 1.01 ± 0.17 g/L
- OD600 nm ([2]; Nickel 700 μM, 127 h): 0.584 ± 0.088
- Ethanol ([2]; Nickel 1000 μM, 0 h): 0.18 ± 0.01 g/L
- OD600 nm ([2]; Nickel 1000 μM, 0 h): 0.009 ± 0.001
- Acetate ([2]; Nickel 1000 μM, 30 h): 0.29 ± 0.04 g/L
- Ethanol ([2]; Nickel 1000 μM, 30 h): 0.44 ± 0.09 g/L
- OD600 nm ([2]; Nickel 1000 μM, 30 h): 0.705 ± 0.014
- Acetate ([2]; Nickel 1000 μM, 54 h): 0.39 ± 0.02 g/L
- Ethanol ([2]; Nickel 1000 μM, 54 h): 0.74 ± 0.05 g/L
- OD600 nm ([2]; Nickel 1000 μM, 54 h): 1.058 ± 0.006
- Acetate ([2]; Nickel 1000 μM, 102 h): 0.62 ± 0.21 g/L
- Ethanol ([2]; Nickel 1000 μM, 102 h): 0.88 ± 0.03 g/L
- OD600 nm ([2]; Nickel 1000 μM, 102 h): 0.943 ± 0.002
- Acetate ([2]; Nickel 1000 μM, 127 h): 0.47 ± 0.11 g/L
- Ethanol ([2]; Nickel 1000 μM, 127 h): 1.04 ± 0.02 g/L
- OD600 nm ([2]; Nickel 1000 μM, 127 h): 0.981 ± 0.088
- Cell density ([3]; Additional Nickel 100 μM): 0.23 g/L
- Cell density ([3]; Additional Nickel 200 μM): 0.25 g/L
- Cell density ([3]; Additional Nickel 300 μM): 0.28 g/L
- Cell density ([3]; Additional Nickel 400 μM): 0.30 g/L
- Cell density ([3]; Additional Nickel 500 μM): 0.35 g/L
- Cell density ([3]; Additional Nickel 600 μM): 0.31 g/L
- Cell density ([3]; Additional Nickel 700 μM): 0.37 g/L
- Cell density ([3]; Additional Nickel 800 μM): 0.45 g/L
- Cell density ([3]; Additional Nickel 900 μM): 0.43 g/L
- Cell density ([3]; Additional Nickel 1000 μM): 0.39 g/L
